Data on 23 compounds can be found in article PMC10290372, “Synthesis and tyrosinase inhibitory activities of novel isopropylquinazolinones” (BMC Chemistry, 2023).

Entries after “also recorded” stand apart in the source; their conditions may differ. Read-outs that look alike come from different tables or passages of the source.

For orientation: IC50 means the concentration that gives 50% inhibition. What is called melting point is the temperature of the solid-liquid transition. Broadly, the inhibition is how much of the control response was suppressed. Low readings indicate a weak effect, high ones a strong effect. Broadly, the % Inhibition is the percentage by which the read-out fell short of the control. Low values mean little suppression, high ones strong suppression.

Data set [1] deals with B16F10 cell line. Details: method as in PMID 33640246. Particulars: cited from earlier work.
Data set [2] relates to B16F10 cell line. Details: method as in PMID 33640246. Particulars: cited from earlier work. The source holds these as a separate data set.
For data set [3], the target named is tyrosinase. Particulars: cited from earlier work; for IC50: tyrosinase.
Another data set has as its target T1, mushroom tyrosinase (Agaricus bisporus, UniProt C7FF04).
T1 construct: purchased Sigma-Aldrich, St Louis, MO, USA
Put plainly: Screening of mushroom tyrosinase inhibitory activity (oxidation of L-dopa). It is filed as biochemical. Particulars: L-dopa substrate, mean ± S.E; for inhibition at 50 µM: 50 µM compound. On the procedure:
All newly synthesized compounds (9a–q) were examined for their inhibitory potentials against the tyrosinase enzyme and the results were presented in Table 1 and the structure–activity relationships (SARs) were constructed. […].
Tyrosinase inhibitory activity was determined based on the previously described procedure with a slight modification. In brief, the test reaction mixture comprised 10 µL of each derivative, and 10 µL of mushroom tyrosinase (500 units; Sigma-Aldrich, St Louis, MO, USA) in 160 potassium phosphate buffer (pH = 6.8). The reaction mixture was incubated at 37 °C for 20 min and then 20 µL of L-Dopa (0.5 mmol/L) was added to each well, and the absorption was measured at 475 nm. The absorbance of the same mixture without tyrosinase was used as the control. Kojic acid was used as a positive control. The optical density of the inhibition in the control was considered to represent 100%. The data are expressed as mean percentages and the results were repeated in triplicate.

A short description of data set [4]: DPPH radical scavenging assay (antioxidant activity). Particulars: for % Inhibition at 100 µM: 100 µM compound, mean ± S.E of three independent experiments; for antioxidant capacity: result in words; for IC50: NA means not active, read-out: IC50 (µM) ± RSD. The procedure:
In vitro antioxidant activities of the synthesized compounds were determined quantitatively using DPPH radical scavenging assay. DPPH is a stable free radical at room temperature and accepts an electron or hydrogen radical from an antioxidant to become a stable diamagnetic molecule. […] Similar to previous studies, halogens especially fluorine, increases antioxidant activity.
The DPPH antioxidant potencies of all derivatives were performed according to previously published articles.
(The DPPH test is a chemical assay of radical scavenging.)

Data set [5] has as its target tyrosinase (Agaricus bisporus, UniProt C7FF04). Put plainly: Enzyme kinetic studies of tyrosinase inhibition (Lineweaver-Burk and secondary plots). The data set is classed as biochemical, mushroom. The procedure: Fig. 2 Kinetics of tyrosinase inhibition by 9q. a The Lineweaver–Burk plot in the absence and presence of different concentrations of 9q; b The secondary plot of slopes of the lines vs various concentrations of 9q; c The secondary plot of 1/Vmax vs various concentrations of 9q
A Lineweaver–Burk plot was generated to identify the type of inhibition and the Michaelis–Menten constant (Km) value was determined from the plot between the reciprocal of the substrate concentration (1/[S]) and reciprocal of enzyme rate (1/V) over various inhibitor concentrations.

T1 sequence (C7FF04 1-392 limits assumed): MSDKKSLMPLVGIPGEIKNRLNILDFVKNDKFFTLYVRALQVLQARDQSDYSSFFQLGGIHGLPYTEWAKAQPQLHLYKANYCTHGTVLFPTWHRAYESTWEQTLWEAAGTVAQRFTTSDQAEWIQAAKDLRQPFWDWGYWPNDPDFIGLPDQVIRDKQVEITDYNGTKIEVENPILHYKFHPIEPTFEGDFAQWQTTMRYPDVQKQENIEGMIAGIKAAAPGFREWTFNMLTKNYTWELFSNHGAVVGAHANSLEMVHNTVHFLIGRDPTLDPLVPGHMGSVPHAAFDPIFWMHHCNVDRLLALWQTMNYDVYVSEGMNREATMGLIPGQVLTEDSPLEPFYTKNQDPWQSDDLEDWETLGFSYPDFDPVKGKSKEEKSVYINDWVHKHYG
Chain of tyrosinase (Agaricus bisporus, UniProt C7FF04) (C7FF04 2-392): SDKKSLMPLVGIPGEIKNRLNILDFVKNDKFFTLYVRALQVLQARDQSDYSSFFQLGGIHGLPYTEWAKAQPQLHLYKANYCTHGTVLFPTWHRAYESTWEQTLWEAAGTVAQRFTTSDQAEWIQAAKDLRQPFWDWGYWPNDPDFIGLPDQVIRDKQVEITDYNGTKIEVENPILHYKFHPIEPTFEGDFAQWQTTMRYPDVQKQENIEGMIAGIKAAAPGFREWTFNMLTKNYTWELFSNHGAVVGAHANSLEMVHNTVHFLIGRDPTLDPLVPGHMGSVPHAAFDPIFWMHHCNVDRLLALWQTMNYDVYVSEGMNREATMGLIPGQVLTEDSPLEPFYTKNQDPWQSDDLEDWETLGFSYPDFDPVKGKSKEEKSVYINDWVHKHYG

`O=c1cc(CSc2nc3ccccc3c(=O)n2Cc2ccccn2)occ1O` [C]: in the data set on B16F10 cell line [1], the toxicity result is “limited toxicity”. The melanin content result in the data set with B16F10 cell line [2] is given as “reduced the melanin content”. Moreover, at tyrosinase [3], the IC50 is 0.46 ± 0.9 µM.

In the case of `CC(C)n1c(SCC(=O)Nc2ccccc2)nc2ccccc2c1=O` [Compound 9a, 2-((3-Isopropyl-4-oxo-3,4-dihydroquinazolin-2-yl)thio)-N-phenylacetamide], the melting point lay within 190 to 192 °C. In addition, at mushroom tyrosinase, 50 µM produced 21.6 ± 3.79% inhibition. In addition, in data set [4], the “% Inhibition at 100 µM” value came out at 2.941 ± 1.76% and the antioxidant capacity result was “no antioxidant capacity”.

`CC(C)n1c(SCC(=O)Nc2ccccc2Cl)nc2ccccc2c1=O` [Compound 9b, N-(2-chlorophenyl)-2-((3-isopropyl-4-oxo-3,4-dihydroquinazolin-2-yl)thio)acetamide]: the melting point was 207 to 209 °C. Also, the inhibition at 50 µM on mushroom tyrosinase is 38 ± 4.68%. For the same compound, the “% Inhibition at 100 µM” value in data set [4] is recorded as 26.47 ± 2.48%.

With `CC(C)n1c(SCC(=O)Nc2cccc(Cl)c2)nc2ccccc2c1=O` [Compound 9c, N-(3-chlorophenyl)-2-((3-isopropyl-4-oxo-3,4-dihydroquinazolin-2-yl)thio)acetamide], the melting point lay within 203 to 205 °C. Also, 50 µM produced 27.8 ± 1.19% inhibition on mushroom tyrosinase. Besides, the “% Inhibition at 100 µM” value in data set [4] is 18.71 ± 5.39%.

In turn, `CC(C)n1c(SCC(=O)Nc2ccc(Cl)cc2)nc2ccccc2c1=O` [Compound 9d, N-(4-chlorophenyl)-2-((3-isopropyl-4-oxo-3,4-dihydroquinazolin-2-yl)thio)acetamide] showed a melting point of 211 to 213 °C. In addition, the inhibition at 50 µM against mushroom tyrosinase was determined as 26.9 ± 4.67%. In data set [4], the “% Inhibition at 100 µM” value is 42.78 ± 4.86%.

In the case of `CC(C)n1c(SCC(=O)Nc2ccc(Br)cc2)nc2ccccc2c1=O` [Compound 9e, N-(4-bromophenyl)-2-((3-isopropyl-4-oxo-3,4-dihydroquinazolin-2-yl)thio)acetamide], the melting point fell in the range of 203 to 205 °C. The inhibition at 50 µM against mushroom tyrosinase is 24.8 ± 3.12%. In addition, the “% Inhibition at 100 µM” value in data set [4] is 41.44 ± 3.85%.

`CC(C)n1c(SCC(=O)Nc2ccc([N+](=O)[O-])cc2)nc2ccccc2c1=O` [Compound 9f, 2-((3-isopropyl-4-oxo-3,4-dihydroquinazolin-2-yl)thio)-N-(4-nitrophenyl)acetamide] had a melting point of 216 to 218 °C. This compound also yielded an inhibition at 50 µM against mushroom tyrosinase of 32.7 ± 5.67%. Also, the “% Inhibition at 100 µM” value in data set [4] turned out to be 4.87 ± 1.65%.

Turning to `Cc1ccccc1NC(=O)CSc1nc2ccccc2c(=O)n1C(C)C` [Compound 9g, 2-((3-isopropyl-4-oxo-3,4-dihydroquinazolin-2-yl)thio)-N-(o-tolyl)acetamide], the melting point fell in the range of 196 to 198 °C. The same compound had an inhibition at 50 µM against mushroom tyrosinase of 34.6 ± 4.67%.

In turn, `Cc1ccc(NC(=O)CSc2nc3ccccc3c(=O)n2C(C)C)cc1` [Compound 9h, 2-((3-isopropyl-4-oxo-3,4-dihydroquinazolin-2-yl)thio)-N-(p-tolyl)acetamide] had a melting point of 199 to 201 °C. The compound also registered an inhibition at 50 µM at mushroom tyrosinase of 26.7 ± 6.42%. In addition, in data set [4], the “% Inhibition at 100 µM” value is on record as 29.41 ± 1.76%.

For the compound `COc1ccc(NC(=O)CSc2nc3ccccc3c(=O)n2C(C)C)cc1` [Compound 9i, 2-((3-isopropyl-4-oxo-3,4-dihydroquinazolin-2-yl)thio)-N-(4-methoxyphenyl)acetamide], the melting point lay in the range of 205 to 207 °C. This compound registered an inhibition at 50 µM against mushroom tyrosinase of 25.4 ± 3.13%. For the same compound, the “% Inhibition at 100 µM” value in data set [4] stood at 20.05 ± 3.47%.

In turn, `CC(C)n1c(SCC(=O)Nc2ccc(O)cc2)nc2ccccc2c1=O` [Compound 9j, N-(4-hydroxyphenyl)-2-((3-isopropyl-4-oxo-3,4-dihydroquinazolin-2-yl)thio)acetamide] returned a melting point of 193 to 195 °C. This compound also came in with an inhibition at 50 µM at mushroom tyrosinase of 35.5 ± 4.91%. In data set [4], the “% Inhibition at 100 µM” value was found to be 40.83 ± 4.53%.

`CCc1ccc(NC(=O)CSc2nc3ccccc3c(=O)n2C(C)C)cc1` [Compound 9k, N-(4-ethylphenyl)-2-((3-isopropyl-4-oxo-3,4-dihydroquinazolin-2-yl)thio)acetamide] yielded a melting point of 195 to 197 °C. Also, the inhibition at 50 µM on mushroom tyrosinase turned out to be 20.4 ± 4.19%. Besides, in data set [4], the “% Inhibition at 100 µM” value is on record as 10.16 ± 4.27%.

The compound `Cc1cccc(NC(=O)CSc2nc3ccccc3c(=O)n2C(C)C)c1C` [Compound 9l, N-(2,3-dimethylphenyl)-2-((3-isopropyl-4-oxo-3,4-dihydroquinazolin-2-yl)thio)acetamide] displayed a melting point of 217 to 219 °C. On mushroom tyrosinase, this compound yielded an inhibition at 50 µM of 18.2 ± 5.52%. Also, the “% Inhibition at 100 µM” value in data set [4] came to 5.08 ± 2.14%.

`Cc1ccc(NC(=O)CSc2nc3ccccc3c(=O)n2C(C)C)c(C)c1` [Compound 9m, N-(2,4-dimethylphenyl)-2-((3-isopropyl-4-oxo-3,4-dihydroquinazolin-2-yl)thio)acetamide] yielded a melting point of 222 to 225 °C. This compound had an inhibition at 50 µM at mushroom tyrosinase of 27.3 ± 3.43%. In addition, the “% Inhibition at 100 µM” value in data set [4] is listed as 21.12 ± 2.99%.

Turning to `Cc1cccc(C)c1NC(=O)CSc1nc2ccccc2c(=O)n1C(C)C` [Compound 9n, N-(2,6-dimethylphenyl)-2-((3-isopropyl-4-oxo-3,4-dihydroquinazolin-2-yl)thio)acetamide], the melting point is 215 to 217 °C. Besides, the inhibition at 50 µM at mushroom tyrosinase was found to be 16.3 ± 6.57%. Besides, in data set [4], the “% Inhibition at 100 µM” value is given as 44.38 ± 5.03%.

Regarding `CC(C)n1c(SCC(=O)Nc2ccc3ccccc3c2)nc2ccccc2c1=O` [Compound 9o, 2-((3-isopropyl-4-oxo-3,4-dihydroquinazolin-2-yl)thio)-N-(naphthalen-2-yl)acetamide], the melting point was in the range of 217 to 219 °C. The inhibition at 50 µM against mushroom tyrosinase was 35.2 ± 3.88%. Further, in data set [4], the “% Inhibition at 100 µM” value is 68.44 ± 4.84% and the IC50 was determined as 38.8 µM.

Compound `CC(C)n1c(SCC(=O)NCc2ccccc2)nc2ccccc2c1=O` [Compound 9p, N-benzyl-2-((3-isopropyl-4-oxo-3,4-dihydroquinazolin-2-yl)thio)acetamide] displayed a melting point of 194 to 196 °C. In addition, 50 µM produced 29.1 ± 5.24% inhibition on mushroom tyrosinase. Also, in data set [4], the “% Inhibition at 100 µM” value is on record as 4.47 ± 2.35% and the antioxidant capacity entry was “no antioxidant capacity”.

On to `CC(C)n1c(SCC(=O)NCc2ccc(F)cc2)nc2ccccc2c1=O` [Compound 9q, N-(4-fluorobenzyl)-2-((3-isopropyl-4-oxo-3,4-dihydroquinazolin-2-yl)thio)acetamide], for which at 50 µM the inhibition against mushroom tyrosinase was 54.5 ± 3.94%. Moreover, on mushroom tyrosinase (NA means not active), it took 34.7 ± 3.68 µM to reach half-maximal inhibition (IC50). For the same compound, the type of inhibition result on tyrosinase [5] (Lineweaver-Burk plot, L-Dopa substrate, 9q at 10-50 µM) is “mix-type inhibition; also recorded: mix-type inhibitor; also recorded: mixed mode of inhibition”. Besides, at tyrosinase [5] (secondary plot of 1/Vmax vs inhibitor concentration), the “inhibition constant with the enzyme-substrate complex (KIS)” value is 87.32 µM. Also, in data set [4], the “% Inhibition at 100 µM” value is given as 60.33 ± 5.53% and the IC50 was 40.7 µM.

With `O=c1[nH]c(-c2ccc(F)cc2)nc2ccccc12` [Compound A, 2–4-fluorophenyl-quinazolin-4(3H)-one], the type of inhibition entry with tyrosinase [3] (kinetic studies) was “reversible and mixed-type inhibitor”. Moreover, the IC50 at tyrosinase [3] (diphenolase activity) was 120 ± 2 µM.

For `CC(C)=CCC/C(C)=C/c1nc2ccccc2c(=O)[nH]1` [D], in the data set with tyrosinase [3], the type of inhibition result is “mix type inhibition pattern” and the IC50 was 103 ± 2 µM.

Turning to `CC(C)n1c(=S)[nH]c2ccccc2c1=O` [E], the IC50 on tyrosinase [3] is 15.5 ± 1.19 µM.

With `CC(C)N1C(=O)c2ccccc2NC1SCc1ccccc1` (stereo not drawn) [F], the IC50 at tyrosinase [3] is 71 ± 3.37 µM.

Take `O=c1c(O)c(-c2ccc(O)c(O)c2)oc2cc(O)cc(O)c12` [Quercetin, reference compound]: in data set [4], the IC50 amounted to 18.6 µM.
